These results are taken from PubChem BioAssay AID270 (DTP/NCI, 2004).

Several values for one entry are separate records, joined by “and”; a condition that tells them apart may be missing. Equal values may be shown once. Results filed as inconclusive are left out.

In this assay the test system is BDF1 mice, s.c. Lewis lung carcinoma, T/C %. Description: NCI In Vivo Anticancer Drug Screen. Data for tumor model Lewis Lung Carcinoma (subcutaneous) in B6D2F1 (BDF1) mice. The method, boiled down: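 The value reflects a ratio in which the treated cohort's survival time or tumour size is compared against mice receiving only vehicle.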
Where [1] appears, read: endpoint: median survival time, dose: 25.0 mg/kg/injection, schedule: Q01DX009 (ip), vehicle: saline, higher = longer survival.

As to `CN(C)c1ccc(-c2cc[n+](C)cc2)cc1`, the T/C (endpoint: median survival time, dose: 0.5 mg/kg/injection, schedule: Q01DX009 (ip), vehicle: saline, higher = longer survival) is 103 % of control; the T/C (endpoint: median survival time, dose: 1.0 mg/kg/injection, schedule: Q01DX009 (ip), vehicle: saline, higher = longer survival) was 114 % of control; the T/C (endpoint: median survival time, dose: 2.0 mg/kg/injection, schedule: Q01DX009 (ip), vehicle: saline, higher = longer survival) was 119 % of control; the T/C (endpoint: median survival time, dose: 3.0 mg/kg/injection, schedule: Q01DX009 (ip), vehicle: saline, higher = longer survival) is 106 % of control; the T/C (endpoint: median survival time, dose: 6.0 mg/kg/injection, schedule: Q01DX009 (ip), vehicle: saline, higher = longer survival) is 103 % of control.
In the case of `CN(C)c1ccc(C(N)=O)cn1`, the T/C runs as follows: (endpoint: mean tumor weight, dose: 1.5 mg/kg/injection, schedule: Q01DX011 (ip), vehicle: saline, higher = larger tumour) 100 % of control; (endpoint: mean tumor weight, dose: 3.0 mg/kg/injection, schedule: Q01DX011 (ip), vehicle: saline, higher = larger tumour) 63 % of control; (endpoint: mean tumor weight, dose: 6.0 mg/kg/injection, schedule: Q01DX011 (ip), vehicle: saline, higher = larger tumour) 36 % of control.
Regarding `CC(C)C[CH2][Pb]([Cl])([CH2]CC(C)C)[CH2]CC(C)C`, the T/C reads like this: (endpoint: median survival time, dose: 0.25 mg/kg/injection, schedule: Q01DX009 (ip), vehicle: Klucel (hydroxypropylcellulose) (HPC), higher = longer survival) 112 % of control; (endpoint: median survival time, dose: 0.5 mg/kg/injection, schedule: Q01DX009 (ip), vehicle: Klucel (hydroxypropylcellulose) (HPC), higher = longer survival) 102 % of control; (endpoint: median survival time, dose: 1.0 mg/kg/injection, schedule: Q01DX009 (ip), vehicle: Klucel (hydroxypropylcellulose) (HPC), higher = longer survival) 93 % of control.
For `O=CNCCNC=O`, the T/C (endpoint: mean tumor weight, dose: 148.0 mg/kg/injection, schedule: Q01DX011 (ip), vehicle: saline, higher = larger tumour) is 96 % of control; the T/C (endpoint: mean tumor weight, dose: 333.0 mg/kg/injection, schedule: Q01DX011 (ip), vehicle: saline, higher = larger tumour) was 98 % of control; the T/C (endpoint: mean tumor weight, dose: 500.0 mg/kg/injection, schedule: Q01DX011 (ip), vehicle: saline, higher = larger tumour) is 115 % of control.
Turning to `CCCCCOC(CN)C(Cl)(Cl)Cl` (configuration not stated), the T/C was 100 % of control (endpoint: median survival time, dose: 12.5 mg/kg/injection, schedule: Q01DX009 (ip), vehicle: saline, higher = longer survival); 92 % of control under setting [1]; 95 % of control (endpoint: median survival time, dose: 100.0 mg/kg/injection, schedule: Q01DX009 (ip), vehicle: saline, higher = longer survival).
As for `c1ccc2c3c(ccc2c1)Sc1ccc2ccccc2c1N3`, the T/C is, setting by setting: (endpoint: mean tumor weight, dose: 400.0 mg/kg/injection, schedule: Q01DX011 (ip), vehicle: other, higher = larger tumour) 78 % of control; (endpoint: mean tumor weight, dose: 600.0 mg/kg/injection, schedule: Q01DX011 (ip), vehicle: other, higher = larger tumour) 57 % of control; (endpoint: mean tumor weight, dose: 800.0 mg/kg/injection, schedule: Q01DX011 (ip), vehicle: other, higher = larger tumour) 57 % of control.
For the compound `O=c1[nH]c(=O)n(C2CC(O)C(CO)O2)cc1F` (configuration not stated), the T/C by setting is: (endpoint: mean tumor weight, dose: 10.0 mg/kg/injection, schedule: Q01DX011 (ip), vehicle: saline, higher = larger tumour) 82 % of control; (endpoint: mean tumor weight, dose: 20.0 mg/kg/injection, schedule: Q01DX011 (ip), vehicle: saline, higher = larger tumour) 57 % of control; (endpoint: mean tumor weight, dose: 26.0 mg/kg/injection, schedule: Q01DX011 (ip), vehicle: saline, higher = larger tumour) 45 % of control; (endpoint: mean tumor weight, dose: 40.0 mg/kg/injection, schedule: Q01DX011 (ip), vehicle: other, higher = larger tumour) 17 % of control and 23 % of control; (endpoint: mean tumor weight, dose: 40.0 mg/kg/injection, schedule: Q01DX011 (ip), vehicle: saline, higher = larger tumour) 25 % of control and 27 % of control; (endpoint: mean tumor weight, dose: 60.0 mg/kg/injection, schedule: Q01DX011 (ip), vehicle: saline, higher = larger tumour) 17 % of control and 23 % of control. The T/C reads like this: (endpoint: mean tumor weight, dose: 80.0 mg/kg/injection, schedule: Q01DX011 (ip), vehicle: other, higher = larger tumour) 10 % of control; (endpoint: mean tumor weight, dose: 80.0 mg/kg/injection, schedule: Q01DX011 (ip), vehicle: saline, higher = larger tumour) 18 % of control; (endpoint: mean tumor weight, dose: 120.0 mg/kg/injection, schedule: Q01DX011 (ip), vehicle: saline, higher = larger tumour) 1 % of control; (endpoint: mean tumor weight, dose: 160.0 mg/kg/injection, schedule: Q01DX011 (ip), vehicle: other, higher = larger tumour) 4 % of control; under setting [1], 90 % of control and 110 % of control and 114 % of control; (endpoint: median survival time, dose: 36.0 mg/kg/injection, schedule: Q01DX011 (ip), vehicle: saline, higher = longer survival) 116 % of control. For the same compound, the T/C is 116 % of control (endpoint: median survival time, dose: 50.0 mg/kg/injection, schedule: Q01DX009 (ip), vehicle: saline with Tween-80, higher = longer survival); 92 % of control and 98 % of control (endpoint: median survival time, dose: 50.0 mg/kg/injection, schedule: Q01DX009 (ip), vehicle: saline, higher = longer survival); 104 % of control (endpoint: median survival time, dose: 80.0 mg/kg/injection, schedule: Q01DX011 (ip), vehicle: saline, higher = longer survival); 95 % of control (endpoint: median survival time, dose: 100.0 mg/kg/injection, schedule: Q01DX009 (ip), vehicle: saline with Tween-80, higher = longer survival); 94 % of control (endpoint: median survival time, dose: 119.0 mg/kg/injection, schedule: Q01DX011 (ip), vehicle: saline, higher = longer survival); 72 % of control (endpoint: median tumor weight (est.), dose: 25.0 mg/kg/injection, schedule: Q01DX009 (ip), vehicle: saline with Tween-80, higher = larger tumour). Also, the T/C runs as follows: (endpoint: median tumor weight (est.), dose: 50.0 mg/kg/injection, schedule: Q01DX009 (ip), vehicle: saline with Tween-80, higher = larger tumour) 66 % of control; (endpoint: median tumor weight (est.), dose: 100.0 mg/kg/injection, schedule: Q01DX009 (ip), vehicle: saline with Tween-80, higher = larger tumour) 32 % of control.
`Nc1nc(SN=Nc2ccc(S(=O)(=O)O)cc2)c2[nH]cnc2n1`: the T/C (endpoint: mean tumor weight, dose: 1.0 mg/kg/injection, schedule: Q01DX011 (ip), vehicle: saline, higher = larger tumour) was 78 % of control; the T/C (endpoint: mean tumor weight, dose: 5.0 mg/kg/injection, schedule: Q01DX011 (ip), vehicle: saline, higher = larger tumour) was 65 % of control; the T/C (endpoint: mean tumor weight, dose: 9.0 mg/kg/injection, schedule: Q01DX011 (ip), vehicle: saline, higher = larger tumour) is 40 % of control; the T/C (endpoint: mean tumor weight, dose: 15.0 mg/kg/injection, schedule: Q01DX011 (ip), vehicle: saline, higher = larger tumour) was 40 % of control.
In the case of `O=CC1CO1` (configuration not stated), the T/C reads like this: (endpoint: mean tumor weight, dose: 29.0 mg/kg/injection, schedule: Q01DX011 (ip), vehicle: saline, higher = larger tumour) 89 % of control; (endpoint: mean tumor weight, dose: 44.0 mg/kg/injection, schedule: Q01DX011 (ip), vehicle: saline, higher = larger tumour) 44 % of control; (endpoint: mean tumor weight, dose: 66.0 mg/kg/injection, schedule: Q01DX011 (ip), vehicle: saline, higher = larger tumour) 75 % of control.
Take `Cc1ccc(C(=O)/C=C/c2ccccc2O)cc1`: the T/C reads like this: (endpoint: median survival time, dose: 37.5 mg/kg/injection, schedule: Q01DX009 (ip), vehicle: Klucel (hydroxypropylcellulose) (HPC), higher = longer survival) 105 % of control; (endpoint: median survival time, dose: 75.0 mg/kg/injection, schedule: Q01DX009 (ip), vehicle: Klucel (hydroxypropylcellulose) (HPC), higher = longer survival) 111 % of control; (endpoint: median survival time, dose: 150.0 mg/kg/injection, schedule: Q01DX009 (ip), vehicle: Klucel (hydroxypropylcellulose) (HPC), higher = longer survival) 108 % of control; (endpoint: median survival time, dose: 300.0 mg/kg/injection, schedule: Q01DX009 (ip), vehicle: Klucel (hydroxypropylcellulose) (HPC), higher = longer survival) 89 % of control.
`Cc1ccccn1`: the T/C is 93 % of control (endpoint: mean tumor weight, dose: 62.5 mg/kg/injection, schedule: Q01DX011 (ip), vehicle: carboxymethylcellulose (CMC), higher = larger tumour); 112 % of control (endpoint: mean tumor weight, dose: 125.0 mg/kg/injection, schedule: Q01DX011 (ip), vehicle: carboxymethylcellulose (CMC), higher = larger tumour); 94 % of control (endpoint: mean tumor weight, dose: 250.0 mg/kg/injection, schedule: Q01DX011 (ip), vehicle: carboxymethylcellulose (CMC), higher = larger tumour).
Regarding `[I][Hg][CH2]C1OCCOC1[CH2][Hg][I]` (configuration not stated), the T/C runs as follows: (endpoint: mean tumor weight, dose: 18.75 mg/kg/injection, schedule: Q01DX011 (ip), vehicle: saline, higher = larger tumour) 79 % of control; (endpoint: mean tumor weight, dose: 37.5 mg/kg/injection, schedule: Q01DX011 (ip), vehicle: saline, higher = larger tumour) 64 % of control; (endpoint: mean tumor weight, dose: 75.0 mg/kg/injection, schedule: Q01DX011 (ip), vehicle: saline, higher = larger tumour) 54 % of control.
As to `CC(=O)OC(C)C1C2=C(C(=O)CC1(C)O)C(=O)c1c(ccc(-c3ccc4c(c3O)C(=O)C3=C(C4=O)C(C(C)OC(C)=O)C(C)(O)CC3=O)c1O)C2=O` (configuration not stated), the T/C is 112 % of control (endpoint: median survival time, dose: 0.1 mg/kg/injection, schedule: Q01DX009 (ip), vehicle: saline + alcohol, higher = longer survival); 122 % of control (endpoint: median survival time, dose: 0.38 mg/kg/injection, schedule: Q01DX009 (ip), vehicle: saline + alcohol, higher = longer survival); 119 % of control (endpoint: median survival time, dose: 0.75 mg/kg/injection, schedule: Q01DX009 (ip), vehicle: saline + alcohol, higher = longer survival); 97 % of control (endpoint: median survival time, dose: 1.5 mg/kg/injection, schedule: Q01DX009 (ip), vehicle: saline + alcohol, higher = longer survival); 101 % of control (endpoint: median survival time, dose: 1.56 mg/kg/injection, schedule: Q01DX009 (ip), vehicle: saline with Tween-80, higher = longer survival).
With `CC1=C(/C=C/C(C)=C/C=C/C(C)=C/C=O)C(C)(C)CCC1`, the T/C (endpoint: median survival time, dose: 16.0 mg/kg/injection, schedule: Q01DX005 (ip), vehicle: DMSO, higher = longer survival) was 153 % of control and the T/C (endpoint: median survival time, dose: 32.0 mg/kg/injection, schedule: Q01DX005 (ip), vehicle: DMSO, higher = longer survival) is 151 % of control.
Take `CCOc1ccc2nc(S(N)(=O)=O)sc2c1`: the T/C by setting is: (endpoint: mean tumor weight, dose: 25.0 mg/kg/injection, schedule: Q01DX011 (ip), vehicle: carboxymethylcellulose (CMC), higher = larger tumour) 79 % of control; (endpoint: mean tumor weight, dose: 50.0 mg/kg/injection, schedule: Q01DX011 (ip), vehicle: carboxymethylcellulose (CMC), higher = larger tumour) 122 % of control; (endpoint: mean tumor weight, dose: 100.0 mg/kg/injection, schedule: Q01DX011 (ip), vehicle: carboxymethylcellulose (CMC), higher = larger tumour) 38 % of control.
